Drawing on ChEMBL document CHEMBL1933014, “Synthesis and antihyperglycemic evaluation of new 2,4-thiazolidinediones having biodynamic aryl sulfonylurea moieties” (2012), this text covers Activity for 9 molecules.

The subject of this assay is Rattus norvegicus. The assay is described as follows: Antihyperglycemic activity in normal albino rat sucrose-loaded model assessed as inhibition of postprandial rise in blood glucose level at 100 mg/kg, po pretreated 30 mins before sucrose challenge measured for 2 hrs during oral glucose tolerance test. Further details: scale not given: the % may be the effect or the level left. The class given is functional.
Take `Cc1ccc(S(=O)(=O)NC(=O)NCC2SC(=O)NC2=O)cc1` (centres undefined): the Activity turned out to be 11.5%.

Consider `O=C(NCC1SC(=O)NC1=O)NS(=O)(=O)c1ccccc1` (centres undefined), for which the Activity is recorded as 15.8%.

On to `O=C(NCC1SC(=O)NC1=O)NS(=O)(=O)c1ccc(Cl)cc1` (centres undefined), for which the Activity is recorded as 17.2%.

As for `O=C(NCC1SC(=O)NC1=O)NS(=O)(=O)c1ccc(F)cc1` (centres undefined), the Activity amounted to 10.7%.

Take `O=C(NCC1SC(=O)NC1=O)NS(=O)(=O)c1ccc(Cl)cc1Cl` (centres undefined): the Activity is recorded as 14.3%.

As to `O=C(NCC1SC(=O)NC1=O)NS(=O)(=O)c1cc(Cl)ccc1Cl` (centres undefined), the Activity came out at 16.5%.

As to `O=C(NCC1SC(=O)NC1=O)NS(=O)(=O)c1ccc(Br)cc1Br` (centres undefined), the Activity came to 8.66%.

For the molecule `O=C(NCC1SC(=O)NC1=O)NS(=O)(=O)c1ccc(Br)cc1` (centres undefined), the Activity is reported as 9.44%.

On to `CN(C)C(=N)NC(=N)N` [METFORMIN], for which the Activity came to 27%.
